The source made the active and inactive calls. The calls are words filed in the database; no cut-off is given here.
Legend:
[1] = biological target: T1, Cyclin-dependent kinase 2 (Homo sapiens, UniProt P24941); assay: Binding affinity to human CDK2 by isothermal titration calorimetric analysis
[2] = biological target: T1, Cyclin-dependent kinase 2; assay: Binding affinity to N-terminal His-tagged human CDK2 expressed in Escherichia coli BL21-AI by STD-NMR analysis
[3] = biological target: CDK2/Cyclin A2 (Homo sapiens, UniProt P24941); assay: Inhibition of recombinant full-length human Cdk2/cyclin A using histone H1 as substrate incubated for 120 mins in presence of 33-P ATP by kinase phosphorylation assay; format: protein-complex assay
[4] = biological target: T2, Cyclin-dependent kinase 2/cyclin E1 (Homo sapiens) (UniProt P24864+P24941); assay: Inhibition of recombinant full-length human Cdk2/cyclin E assessed as enzyme activity using histone H1 as substrate at 5 uM incubated for 120 mins in presence of 33-P ATP by kinase phosphorylation assay; format: protein-complex assay; design: scale not given: the % may be the effect or the level left
[5] = organism: Homo sapiens; assay: Inhibition of human PKA assessed as enzyme activity using PKA peptide as substrate at 5 uM incubated for 120 mins in presence of 33-P ATP by kinase phosphorylation assay; design: scale not given: the % may be the effect or the level left
[6] = biological target: T3, CDK2/Cyclin A2 (Homo sapiens) (UniProt P24941+P20248); assay: Inhibition of recombinant full-length human Cdk2/cyclin A assessed as enzyme activity using histone H1 as substrate at 5 uM incubated for 120 mins in presence of 33-P ATP by kinase phosphorylation assay; format: protein-complex assay; design: scale not given: the % may be the effect or the level left
[7] = biological target: ALK tyrosine kinase receptor (Homo sapiens) (UniProt Q9UM73); assay: Inhibition of human ALK assessed as enzyme activity using pEY as substrate at 5 uM incubated for 120 mins in presence of 33-P ATP by kinase phosphorylation assay; design: scale not given: the % may be the effect or the level left
Sequence of ALK tyrosine kinase receptor (Homo sapiens) (Q9UM73 19-1620 limits assumed): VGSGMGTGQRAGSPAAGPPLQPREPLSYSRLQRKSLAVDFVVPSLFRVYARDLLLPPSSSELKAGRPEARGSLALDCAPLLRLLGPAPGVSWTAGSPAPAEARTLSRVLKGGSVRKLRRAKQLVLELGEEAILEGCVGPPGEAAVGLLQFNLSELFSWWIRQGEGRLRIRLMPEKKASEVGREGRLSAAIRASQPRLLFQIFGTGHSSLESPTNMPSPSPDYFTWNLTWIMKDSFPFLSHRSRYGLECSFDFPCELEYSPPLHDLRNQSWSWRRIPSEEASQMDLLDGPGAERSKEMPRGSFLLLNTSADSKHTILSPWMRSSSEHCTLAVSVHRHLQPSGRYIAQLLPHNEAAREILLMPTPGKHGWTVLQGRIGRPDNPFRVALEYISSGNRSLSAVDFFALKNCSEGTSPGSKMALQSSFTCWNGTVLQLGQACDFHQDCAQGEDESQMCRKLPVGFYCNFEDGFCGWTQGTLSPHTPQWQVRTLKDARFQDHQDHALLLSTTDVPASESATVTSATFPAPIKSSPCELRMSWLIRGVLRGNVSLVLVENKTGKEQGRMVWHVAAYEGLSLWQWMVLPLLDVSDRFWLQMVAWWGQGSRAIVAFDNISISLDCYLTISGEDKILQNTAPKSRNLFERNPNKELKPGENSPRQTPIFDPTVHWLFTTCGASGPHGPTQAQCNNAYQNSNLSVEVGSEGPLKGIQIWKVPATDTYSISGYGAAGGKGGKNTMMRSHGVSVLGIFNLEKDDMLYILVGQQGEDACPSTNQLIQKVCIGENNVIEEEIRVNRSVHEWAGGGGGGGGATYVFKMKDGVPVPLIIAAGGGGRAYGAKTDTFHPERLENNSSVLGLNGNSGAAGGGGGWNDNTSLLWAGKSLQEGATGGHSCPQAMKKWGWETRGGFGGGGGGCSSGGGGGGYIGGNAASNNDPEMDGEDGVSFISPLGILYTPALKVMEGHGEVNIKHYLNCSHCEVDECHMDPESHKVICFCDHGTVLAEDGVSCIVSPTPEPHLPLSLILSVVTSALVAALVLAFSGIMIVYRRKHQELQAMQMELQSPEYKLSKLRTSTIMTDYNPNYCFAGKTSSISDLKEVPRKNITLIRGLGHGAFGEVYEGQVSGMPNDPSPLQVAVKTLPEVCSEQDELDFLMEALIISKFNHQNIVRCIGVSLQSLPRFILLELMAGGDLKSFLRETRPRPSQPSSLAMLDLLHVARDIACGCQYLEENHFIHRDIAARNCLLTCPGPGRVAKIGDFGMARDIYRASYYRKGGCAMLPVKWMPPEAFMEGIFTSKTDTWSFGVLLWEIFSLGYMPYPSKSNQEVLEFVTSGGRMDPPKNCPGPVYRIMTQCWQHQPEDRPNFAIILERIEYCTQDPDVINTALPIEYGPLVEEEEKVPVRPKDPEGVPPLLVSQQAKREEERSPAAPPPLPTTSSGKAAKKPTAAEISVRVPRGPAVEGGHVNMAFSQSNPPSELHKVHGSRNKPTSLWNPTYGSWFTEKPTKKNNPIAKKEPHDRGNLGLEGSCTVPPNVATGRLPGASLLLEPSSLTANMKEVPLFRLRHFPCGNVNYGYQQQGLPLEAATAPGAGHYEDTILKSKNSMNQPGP

[8] = biological target: T2, Cyclin-dependent kinase 2/cyclin E1 (Homo sapiens); assay: Inhibition of recombinant full-length human Cdk2/cyclin E assessed as enzyme activity using histone H1 as substrate at 100 uM incubated for 120 mins in presence of 33-P ATP by kinase phosphorylation assay; format: protein-complex assay; design: scale not given: the % may be the effect or the level left
[9] = organism: Homo sapiens; assay: Inhibition of human PKA assessed as enzyme activity using PKA peptide as substrate at 100 uM incubated for 120 mins in presence of 33-P ATP by kinase phosphorylation assay; design: scale not given: the % may be the effect or the level left
[10] = biological target: T3, CDK2/Cyclin A2 (Homo sapiens); assay: Inhibition of recombinant full-length human Cdk2/cyclin A assessed as enzyme activity using histone H1 as substrate at 100 uM incubated for 120 mins in presence of 33-P ATP by kinase phosphorylation assay; format: protein-complex assay; design: scale not given: the % may be the effect or the level left

Row | Compound | Kd [1] | Activity [2] | other results
1 | CC(C)=CCNc1ncnc2nc[nH]c12 | 35 µM | – | –
2 | Cc1ccc(Cn2cc(-n3c(-c4ccc(Cn5nc(C)c(Cl)c5C)o4)n[nH]c3=S)cn2)cc1 | – | inactive | –
3 | Cc1ccc(Cn2cc(-n3c(-c4ccc(Cn5cc(Cl)cn5)cc4)n[nH]c3=S)cn2)cc1 | – | inactive | –
4 | Nc1ncnc2c1ncn2[C@@H]1O[C@H](CO)[C@@H](O)[C@H]1O [ADENOSINE] | 184 µM | – | –
5 | Cc1nc2[nH]n(-c3ccccc3)c(=O)c2c2c1c(=O)oc1ccc(Br)cc12 | – | – | IC50 [3]: 2.6 µM; Activity [4]: 95%; Activity [5]: 115%; Activity [6]: 35%; Activity [7]: 87%
6 | N=C(N)NCCNS(=O)(=O)c1cccc2cnccc12 | 286 µM | Active | –
7 | c1ccc(CNc2ncnc3nc[nH]c23)cc1 [6-BENZYLAMINOPURINE] | 62 µM | – | –
8 | c1ccc(CNc2ncnc3[nH]cnc23)cc1 | – | Active | –
9 | CNc1ncnc2ccc([N+](=O)[O-])cc12 | 208 µM | Active | –
10 | O=S(=O)(c1cccc2cnccc12)N1CCCNCC1 | – | Active | –
11 | Cc1ccc(Cn2cc(-n3c(-c4ccc(Cn5nc(C)cc5C)o4)n[nH]c3=S)cn2)cc1 | – | inactive | –
12 | Cc1ccc(Cn2nccc2-n2c(-c3cc(C)n(C)n3)n[nH]c2=S)cc1 | – | Active | Activity [8]: 96%; Activity [9]: 99%; Activity [10]: 69%; IC50 [3]: 1000 µM
13 | Cc1ccc(Cn2cc(-n3c(-c4ccc(Cn5cccn5)cc4)n[nH]c3=S)cn2)cc1 | – | inactive | –
14 | CC(C)=CCNc1ncnc2[nH]cnc12 | – | Active | –

— ChEMBL document CHEMBL3751749, “Identification of new hit scaffolds by [sequence]-guided virtual screening” (Medchemcomm, 2015)
